Measured values: US8389468B2, “Approach to the treatment of compartment syndrome” (Lantmannen AS-Faktor AB, priority 2006, dated 2013)
“Also recorded” adds a separate entry of the source.

Tests used:
HSV-1 infected rats = assay: Outflow of CSF through cribriform lamina, Evans blue-albumin (EBA) infusion in HSV-1 infected rats; assay type: in vivo, rat; conditions: 10 or 25 pg intranasally
From the text: FIG. 6: Sections through the cribriform lamina, a bone structure separating the brain from the nose and through which the olfactory nerve pass. In the left figure (a) the dye-protein complex Evans blue-albumin (EBA) was infused into the subarachnoid space at day 5 after HSV-1 infection. The animal suffered from moderate encephalitis. Note that there is no red EBA in the cribriform lamina, nor in the nose, as the passage between the brain and nasal cavity is blocked. In the right figure (b) EBA was infused into the subarachnoid space of a non-infected, normal rat.
Additional HSV-1 infected animals with distinctly overt symptoms were as well treated with 10 or 25 pg AF-16 intranasally, starting on day 5, 6 or 7, i.e. after having had the vehicle during the previous days. […] Thus, non of the acutely AF-16 treated rats had any persistent signs of deleterious ICP and thus no CS developed. […] That is seen in the mentioned figure (FIG. 5 a) as there is no red staining of the right half on the figure. However, treatment with 10 or 25 pg AF-16 intranasally turned the picture in HSV-1 infected rats as in the normal, non-infected ones. […] Thereby the outflow of CSF was restored and the ICP turned normal.

[1] = test system: flotillin-1 and aquaporin 1 immunoreactivities in the choroid plexus; assay: Immunohistochemistry of flotillin-1 and aquaporin 1 in choroid plexus of HSV-1 infected rats; assay type: in vivo, rat; conditions: hardly demonstrable with vehicle
Procedure: Therefore, rats were infected by instillation in their right nostril of 25 μL of a solution of the herpes simplex virus type 1 (HSV-1; strain 2762, batch 041028; 1.7×10^7 PFU/mL). Half of the animals received 10 min later 25 μL (1, 10 or 25 pg) of AF-16 in their right nostril, and had thereafter the same dose of AF-16 instilled every morning at 8 AM and every night at 6 PM until the experiment was terminated on day 14. The other half of the group of HSV-1 infected rats received 25 μL of the vehicle, PBS, at the same time schedule. The animals were several times daily closely watched for signs of behavioral dysfunction or general sickness. If so, the animals were sacrificed. The FIG. 3 is illustrating the survival rates for the animals, all being infected with HSV-1. […] In contrast, the HSV-1 infected rats, receiving just the vehicle (n=15), died to a large extent and only 10% were still surviving at the end of the test period, day 14 (FIG. 3). All of the vehicle treated, infected rats developed signs of neurological dysfunctions. […] It ought to be stressed that the extent and severity of the damage were depending on the duration of the exposure and to the level of elevated ICP as well as to the survival time. […]

HSV-1 = assay: Immunohistochemical visualization of HSV-1 proteins in brain, rats; assay type: in vivo, rat; conditions: 1 or 10 pg intranasally twice daily, day 6
Procedure: An alternative explanation to the improved survival of HSV-1 infected animals could be that the treatment with AF-16 prevented the virus from multiplying and/or spreading in the brain. […] Adult rats were infected by having a solution of the herpes simplex virus type 1 (HSV-1; strain 2762, batch 041028; 1.7×10^7 PFU/mL) instilled in their right nostril. Half of the animals received 10 min later 25 pi_ (1 or 10 pg) of AF-16 in their right nostril, and had thereafter the same dose of AF-16 instilled every morning at 8 AM and every night at 6 PM until the experiment was terminated on day 6. The other groups of the HSV-1 infected rats received at the same time intervals 25 pL of the vehicle, PBS. The animals were closely watched for signs of general sickness and of behavioral and motor dysfunction. The animals were sacrificed by an overdose of anesthetics on day 6, the skull opened and the brain removed. The brains, including the olfactory bulbs, were fixed by immersion in buffered formalin for at least a day. The brains were the dissected and divided in several specimens, which were processed for light microscopic investigation after paraffin embedding and sectioning. The sections were processed for routine staining and for immunohistochemical visualization of HSV-1 proteins (FIG. 4). […] Note the distinct staining of the nerve cells (black in FIG. 4a-c).

implanted tumours = assay: Interstitial fluid pressure (IFP) in implanted tumours; assay type: in vivo, rodents
Procedure: Tumours, malignant as well as benign, have been implanted subcutaneously and intramuscularly in rodents. Every second animal, having tumours with a diameter ranging from 10 mm to 15 mm, was treated with AF proteins or AF-16, systemically with the aid of subcutaneously implanted Alzet osmotic minipumps, by injections of AF-16 at or into the tumour. In another experiment, the AF-16 peptide was delivered from an implanted Alzet 2001 pump directly onto and/or into the tumour with a fine silicone tube. Additional rats had the AF-protein induced by their feed ort by having AF in egg yolk. For comparison, an equal number of rats received the same treatment but with the vehicle. The interstitial fluid pressure (IFP) in the tumour as well as at its adjacent regions was determined with the aid of a Samba glass fibre pressure sensor (diameter 0.4 mm), with and without a protecting tubing, as well as with equipment enabling determination of the interstitial fluid pressure by the “wick” technique. […] The IFP in the adjacent connective tissue was ranging from 0 to 4 mm Hg, but could occasionally be negative. Tumours in the range of 10-15 mm, and treated with AF-16 as described above, got a reduction of the IFP, which turned reduced to usually 12 mm Hg or less.

Sequence: VCHSKTRSNPENNVGL [AF-16]
- outflow of CSF to nasal mucosa (EBA staining of cribriform lamina) (HSV-1 infected rats): opened the passage for the CSF through the cribriform plate; also recorded: reversed the block of the outflow of CSF
- aquaporin 1 immunoreactivity in the choroid plexus [1]: readily demonstrable
- flotillin-1 immunoreactivity in the choroid plexus [1]: readily demonstrable
- prevalence and distribution of HSV-1 proteins in the brain vs vehicle (HSV-1): no obvious difference with regard to the prevalence and distribution of HSV-1 proteins; also recorded: no difference in frequency or distribution of HSV-1 positive brain cells
- inflammatory reaction in tumour (light microscopy) (implanted tumours; in vivo): reduced the intensity and extent of the inflammatory reaction
- interstitial fluid pressure (IFP) in the tumour (implanted tumours; tumours 10-15 mm, vehicle in excess of 12): ≤ 12 mm Hg
